Source: publication PMC12498190, “A Photocaged N‐Phosphonopiperidinone as a Selective Photo‐Cleavable DPP8/9 Inhibitor” (Chembiochem, 2025)
Where two headings read alike, the source gives them in different places.

How the values were obtained:
human DPP8 = target: T1, human DPP8 (Homo sapiens, UniProt Q6V1X1); test: DPP8 enzyme inhibition assay, AMC release from GP-AMC; assay type: biochemical; settings: for IC50: 45 min pre-incubation, read-out: Apparent IC50
T1 construct: purchased Proteros Biostructures GmbH, Germany
T1 sequence (Q6V1X1 whole entry): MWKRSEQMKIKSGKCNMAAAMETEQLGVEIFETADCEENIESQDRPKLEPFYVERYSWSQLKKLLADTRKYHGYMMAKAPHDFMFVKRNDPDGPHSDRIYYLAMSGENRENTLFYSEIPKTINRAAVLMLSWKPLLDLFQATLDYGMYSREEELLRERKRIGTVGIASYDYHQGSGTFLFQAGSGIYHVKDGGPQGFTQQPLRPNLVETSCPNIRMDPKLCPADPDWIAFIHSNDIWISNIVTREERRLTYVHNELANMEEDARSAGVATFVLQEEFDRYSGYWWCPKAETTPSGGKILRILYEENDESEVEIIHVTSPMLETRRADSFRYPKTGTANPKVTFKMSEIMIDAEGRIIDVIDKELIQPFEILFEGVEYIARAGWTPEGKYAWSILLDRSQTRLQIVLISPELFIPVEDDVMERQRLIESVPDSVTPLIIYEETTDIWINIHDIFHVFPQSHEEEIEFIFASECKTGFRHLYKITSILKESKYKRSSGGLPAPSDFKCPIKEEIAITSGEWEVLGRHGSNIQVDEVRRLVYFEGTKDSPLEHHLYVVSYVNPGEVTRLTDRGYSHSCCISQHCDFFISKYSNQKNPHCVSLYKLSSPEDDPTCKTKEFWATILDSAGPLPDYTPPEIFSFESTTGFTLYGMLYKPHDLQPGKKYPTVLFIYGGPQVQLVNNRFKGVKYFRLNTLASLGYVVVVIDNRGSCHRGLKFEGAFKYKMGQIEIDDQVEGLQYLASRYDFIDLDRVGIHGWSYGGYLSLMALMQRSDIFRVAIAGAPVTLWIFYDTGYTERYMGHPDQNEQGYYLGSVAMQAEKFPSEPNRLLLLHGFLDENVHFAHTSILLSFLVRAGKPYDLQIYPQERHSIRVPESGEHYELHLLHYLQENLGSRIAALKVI
From the text: We then continued to investigate the biochemical properties of the photocaged compound 5 versus the photoreleased product resembling inhibitor 1. To this end, we performed biochemical enzyme inhibition assays with DPP8 and DPP9 before and after irradiation of 5. Resulting DPP8/9 inhibition was quantified by following the DPP8‐ or DPP9‐mediated proteolysis of the fluorophore 7‐amino‐4‐methylcoumarin (AMC) from the model substrate Gly‐Pro‐AMC (Figure 1C,D and Table 1 ). To induce photocleavage of 5, reaction mixtures were irradiated for 5 min with the same green LED lamp as before, followed by a pre‐incubation of 45 min with the photoreleased inhibitor prior to substrate addition.
Enzyme activity of human DPP4, DPP8, and DPP9 (Proteros Biostructures GmbH, Germany) was determined by measuring the initial velocity of AMC release from the fluorogenic substrate GP‐AMC (Sigma Aldrich, USA) using a Tecan Spark 10 M multimode microplate reader (Tecan Group Ltd., Switzerland) in activity buffer (20 mM HEPES/KOH pH 7.3, 110 mM potassium acetate, 2 mM magnesium acetate, 0.5 mM EGTA, 0.02% Tween 20, supplemented with 1 mM DTT) and a final volume of 20 μL for maximal 30 min at 30 °C. Prior to the activity measurement, 10 nM of the corresponding enzyme was incubated for 45 min at 30 °C and gentle shaking with the indicated compounds at concentrations ranging from 0 to 100 μM, followed by irradiation with a green LED lamp (λ = 520−530 nm; Eurolite, Germany) for 5 min. The corresponding compounds were dissolved in DMSO and diluted in activity buffer (final DMSO concentration: 1%). To the inhibitor–enzyme mixture, GP‐AMC was then added to a final concentration of 250 μM, and the activity measurement was started. The resulting enzyme activity was calculated from the slope (fluorescence release over time) and plotted against the concentrations of the inhibitor. Apparent IC50 values were calculated using Graph‐Pad Prism v10.4.1 using the equation: [Inhibitor] versus response‐Variable slope (four parameters). All measurements were performed in triplicate, and error bars represent standard errors of the fit.

DPP9 = DPP9 (Homo sapiens, UniProt Q86TI2); test: In vitro gel-based competitive ABPP in HEK293 cell lysates, 100 kDa band; parameters: endogenous in cells; host or cells: HEK293 (Cytion, Germany, 300192); settings: HEK293 lysate, 10 µM competitor, 30 min; for Competition of ≡FP labeling (in words): 2 µM ≡FP
DPP9, sequence (Q86TI2 whole entry): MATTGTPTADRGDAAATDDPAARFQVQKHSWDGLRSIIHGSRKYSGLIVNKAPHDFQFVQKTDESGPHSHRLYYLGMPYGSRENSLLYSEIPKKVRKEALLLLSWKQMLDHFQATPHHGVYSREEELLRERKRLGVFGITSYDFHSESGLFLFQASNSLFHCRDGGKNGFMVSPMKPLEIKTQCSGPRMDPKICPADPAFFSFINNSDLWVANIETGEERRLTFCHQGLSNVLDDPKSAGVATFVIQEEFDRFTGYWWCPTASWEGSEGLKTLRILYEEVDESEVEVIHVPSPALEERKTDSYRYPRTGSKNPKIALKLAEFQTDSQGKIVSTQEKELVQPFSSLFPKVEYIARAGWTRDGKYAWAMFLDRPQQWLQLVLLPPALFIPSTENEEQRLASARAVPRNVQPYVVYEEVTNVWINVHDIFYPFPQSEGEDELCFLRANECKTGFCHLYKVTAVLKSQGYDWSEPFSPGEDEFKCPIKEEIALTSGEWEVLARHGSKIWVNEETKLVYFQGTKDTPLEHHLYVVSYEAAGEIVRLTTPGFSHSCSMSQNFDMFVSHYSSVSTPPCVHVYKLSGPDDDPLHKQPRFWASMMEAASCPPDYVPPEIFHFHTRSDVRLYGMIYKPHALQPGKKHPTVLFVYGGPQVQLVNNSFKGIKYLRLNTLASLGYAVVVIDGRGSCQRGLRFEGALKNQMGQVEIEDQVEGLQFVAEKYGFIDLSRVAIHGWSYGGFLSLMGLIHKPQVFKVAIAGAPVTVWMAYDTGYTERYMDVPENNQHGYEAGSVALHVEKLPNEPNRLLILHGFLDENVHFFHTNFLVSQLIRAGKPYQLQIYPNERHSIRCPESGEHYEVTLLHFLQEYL
Protocol: Therefore, HEK293 cell lysates were pre‐incubated with 10 µM 5 or DMSO vehicle control for 30 min, followed by a labeling reaction with 2 µM of the serine hydrolase‐specific ABP fluorophosphonate‐alkyne (≡FP) or 10 µM 2 (Figure 2B). […] Of note, this band has been previously assigned as DPP9 (DPP8 would migrate in the same range, but is only expressed at low levels in the used cell line and therefore cannot be visualized by this approach).^[ [36] ^, [37] ^] […] Again, this labeling was observed regardless of prior irradiation. Subsequently, the competitive labeling experiment was conducted by pre‐incubation with compound 5, with or without subsequent irradiation.
Figure 2 Competitive ABPP with photo‐cleavable inhibitor 5 in HEK293 cells. A) Schematic overview of a competitive ABPP experiment. A proteome is pre‐incubated with a competitor, followed by a labeling reaction with an activity‐based probe (ABP). In the case of a photocaged inhibitor, the active compound can be released via irradiation. Target proteins of the competitor cannot be bound by the ABP, resulting in an absence of the respective protein band in‐gel analysis. Created in BioRender. Najdzion, M. (2025) https://BioRender.com/84zn8cb B) Gel‐based competitive ABPP experiment in HEK293 cell lysates with the broadband serine hydrolase ABP ≡FP or the DPP8/9‐directed ABP 2 and the photocaged inhibitor 5, at the indicated concentrations, after or without prior irradiation with green light for 5 min. The corresponding pre‐incubation time for 5 was 30 min. C) Corresponding in situ competitive ABPP experiment in HEK293 cell culture, again with 10 µM 2 for 1 h. Labeling was competed by pre‐incubation with 20 µM 5 for 1 h, followed by an activation of the photocaged inhibitor by irradiation for 5 min with a green LED lamp, if applicable. D) Green light treatment has no cytotoxic effect. HEK293 cells were irradiated with a green LED lamp in the presence of 0.5% DMSO for 5 min (‘light’), and cell viability was measured after 24 h. […] Data was normalized to the non‐irradiated control (‘dark’). E) Green light treatment leads to the release of the active DPP8/9 inhibitor. HEK293 cells were incubated with compound 1 or 5 for 24 h. For both compounds, cell viability was measured under ‘dark’ (not irradiated) and ‘light’ (irradiated for 5 min with a green LED lamp after the addition of the inhibitor) conditions. […] Data was normalized to the non‐irradiated DMSO control.
For in vitro ABPP, cell lysates were generated from HEK293 cells grown on a 10 cm tissue dish. […] The cell lysates were cleared via centrifugation (30 min, 20,817 × g, 4 °C), and protein concentration was determined with a modified Bradford assay using Roti‐Nanoquant (Carl Roth, Germany). […]

CCCCCc1ccc(SCCP(=O)(OCC)N2CCC[C@H](NC(=O)OCC3=C4C(C)=CC(C)=[N+]4[B-](C)(C)n4c(C)cc(C)c43)C2=O)cc1 (stereo partly shown) [Compound 5]
Dark/light ratio of apparent IC50 (human DPP8): 30 | Increase in potency after green light-mediated photorelease (human DPP8; apparent IC50 dark vs light): about 30 fold | IC50 (human DPP8; dark (without green light irradiation)): 1100 nM | IC50 (human DPP8; light (5 min green LED, 520-530 nm)): 37 ± 3 nM | Competition of ≡FP labeling (in words) (DPP9; green light 5 min, 100 kDa band assigned as DPP9): labeling competition of one specific band | Competition of ≡FP labeling (in words) (DPP9; without irradiation): did not result in any competition | Competition of DPP9 labeling by ABP 2 (in words) (DPP9; 10 µM 2, green light 5 min): efficient DPP9 labeling competition
